Assay results published in PubChem BioAssay (NCI).
Where “and” joins values, the source holds several entries; their conditions need not be identical. Equal entries are not always repeated.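 Dose response: 5 concentrations. Exposure: 48 h. Format: 96-well plates. Endpoint: linear interpolation; highest concentration if not reached. Abbreviation: GI50, concentration required for 50% inhibition of growth. At the TGI there is no net growth.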

These compounds were tested on LXFL 529 NSCLC (assay: NCI anticancer screen, dose series, 48 h).
`CC(=O)N/C(=C\c1ccccc1/C=C(\NC(C)=O)c1nc2cc(C)c(C)cc2[nH]1)c1nc2cc(C)c(C)cc2[nH]1` gave a TGI of 30.8 µM.
With `CCOC(=O)Cc1csc(Nc2ccccc2[N+](=O)[O-])n1` the TGI was over 100 µM.

Each compound was assayed on MDA-MB-231 breast (assay: NCI anticancer screen, dose series, 48 h).
`CC(C)=CCC1=C(O)c2ccccc2C(=O)C1=O` gave a GI50 of 21 µM and a TGI of over 100 µM.
`NC(=S)N/N=C/c1ncccc1O` was tested, and the TGI was over 1000 µM.

What follows are compounds tested on MDA-MB-435 (assay: NCI anticancer screen, dose series, 48 h).
Compound `CC(C)=CCC1=C(O)c2ccccc2C(=O)C1=O` has a GI50 of 21.8 µM and a TGI of over 100 µM.
In the case of `NC(=S)N/N=C/c1ncccc1O`, the GI50 was 1.33 µM and the TGI was over 471 µM.

Each compound was assayed on NCI-H226 lung (assay: NCI anticancer screen, dose series, 48 h).
Compound `O=Cc1cc2c(cc1-c1cc3c(cc1C=O)OCO3)OCO2` has a TGI of over 100 µM.
For `C/C(=N\NC(N)=O)c1sc(-c2nc(C)c(/C(C)=N/NC(N)=O)s2)nc1C`, the TGI was over 100 µM.
`O=S(=O)(OI(OI(OS(=O)(=O)C(F)(F)F)c1ccccc1)c1ccccc1)C(F)(F)F` gave a TGI of over 100 µM.
With `COc1cc(OC)c(OC)cc1/C=N/NC(=O)N/N=C/c1cc(OC)c(OC)cc1OC` the TGI was over 100 µM.
For `FC(F)(F)c1ccc2nc(NCc3ccccc3)c(-c3ccccc3)nc2c1`, the TGI was over 100 µM.
`Cc1cc2c(cc1C)[n+](=O)cc(C(=O)C/C(=N/NC(=S)NN)C(=O)Nc1cccc(C(F)(F)F)c1)n2[O-]` showed a TGI of over 100 µM.
`COc1cc(C[P+](c2ccccc2)(c2ccccc2)c2ccccc2)cc(OC)c1OC` gave a TGI of over 100 µM.
`CC(C)=CCC1=C(O)c2ccccc2C(=O)C1=O` showed a TGI of over 100 µM.
Compound `CCCN(CCC)c1c([N+](=O)[O-])cc(C(=O)N(CC)CC)cc1[N+](=O)[O-]` has a TGI of 71.3 µM.
`NC(=S)N/N=C/c1ncccc1O` was tested, and the GI50 was 4.3 µM and the TGI was 18 µM and 122 µM.
In the case of `COC(=N)c1csc(C2OC(CO)C(O)C2O)n1` (stereo not given), the TGI was over 100 µM.
With `CN1Nc2ccccc2CC1=O` the TGI was over 100 µM.
Work on `CCOc1ccc(OCC(=O)O)c2c1CCCC2=O` yielded a TGI of over 100 µM.
In the case of `Nc1c(S(=O)(=O)c2ccc(Cl)cc2)c2nc3ccccc3nc2n2ccnc12`, the TGI was 84.1 µM.
`CCOc1ccc(NC(=O)CC2SC(=Nc3ccc(C)cc3C)NC2=O)cc1` (stereo not given) showed a TGI of over 100 µM.
Work on `Oc1oc(C(=C2N=c3ccccc3=N2)c2ccc(Cl)cc2)c(O)c1-c1ccc(Cl)cc1` yielded a TGI of 6.81 µM.
Compound `Cc1nc2c(N)ncnc2o1` has a TGI of over 100 µM.
`O=c1[nH]c(=O)n(C2CC(O)C(CO)O2)cc1OS(=O)(=O)C(F)(F)F` (stereo not given) was tested, and the TGI was over 100 µM.
With `CC[C@@H]1NC(C(=O)OC)Cc2c1[nH]c1ccccc21` (stereo not given in full) the TGI was over 100 µM.
`CC(=O)N/C(=C\c1ccccc1/C=C(\NC(C)=O)c1nc2cc(C)c(C)cc2[nH]1)c1nc2cc(C)c(C)cc2[nH]1` was tested, and the TGI was over 100 µM.
`CCOC(=O)Cc1csc(Nc2ccccc2[N+](=O)[O-])n1` was tested, and the TGI was over 100 µM.

These compounds were tested on SF-268 CNS (assay: NCI anticancer screen, dose series, 48 h).
For `O=Cc1cc2c(cc1-c1cc3c(cc1C=O)OCO3)OCO2`, the TGI was over 100 µM.
Compound `C/C(=N\NC(N)=O)c1sc(-c2nc(C)c(/C(C)=N/NC(N)=O)s2)nc1C` has a TGI of over 100 µM.
`O/N=C1\CCCCC1C(NO)c1ccccc1` (stereo not given) showed a TGI of over 100 µM.
`O=S(=O)(OI(OI(OS(=O)(=O)C(F)(F)F)c1ccccc1)c1ccccc1)C(F)(F)F` was tested, and the TGI was over 100 µM.
`COc1cc(OC)c(OC)cc1/C=N/NC(=O)N/N=C/c1cc(OC)c(OC)cc1OC` was tested, and the TGI was over 100 µM.
In the case of `FC(F)(F)c1ccc2nc(NCc3ccccc3)c(-c3ccccc3)nc2c1`, the TGI was over 100 µM.
Work on `Cc1cc2c(cc1C)[n+](=O)cc(C(=O)C/C(=N/NC(=S)NN)C(=O)Nc1cccc(C(F)(F)F)c1)n2[O-]` yielded a TGI of over 100 µM.
In the case of `COCOCCC#CCO`, the TGI was over 100 µM.
With `COc1cc(C[P+](c2ccccc2)(c2ccccc2)c2ccccc2)cc(OC)c1OC` the TGI was over 100 µM.
For `CC(C)=CCC1=C(O)c2ccccc2C(=O)C1=O`, the GI50 was > 100000 nM and 11800 nM and the TGI was over 100 µM.
Compound `CCCN(CCC)c1c([N+](=O)[O-])cc(C(=O)N(CC)CC)cc1[N+](=O)[O-]` has a TGI of over 100 µM.
In the case of `NC(=S)N/N=C/c1ncccc1O`, the GI50 was 2880 nM and 736 nM and the TGI was 29.6 µM and 89.4 µM.
`COC(=N)c1csc(C2OC(CO)C(O)C2O)n1` (stereo not given) gave a TGI of over 100 µM.
In the case of `CN1Nc2ccccc2CC1=O`, the TGI was over 100 µM.
In the case of `CCOc1ccc(OCC(=O)O)c2c1CCCC2=O`, the TGI was over 100 µM.
In the case of `Nc1c(S(=O)(=O)c2ccc(Cl)cc2)c2nc3ccccc3nc2n2ccnc12`, the TGI was over 100 µM.
`CCOc1ccc(NC(=O)CC2SC(=Nc3ccc(C)cc3C)NC2=O)cc1` (stereo not given) showed a TGI of over 100 µM.
For `Oc1oc(C(=C2N=c3ccccc3=N2)c2ccc(Cl)cc2)c(O)c1-c1ccc(Cl)cc1`, the TGI was over 100 µM.
For `Cc1nc2c(N)ncnc2o1`, the TGI was over 100 µM.
`O=c1[nH]c(=O)n(C2CC(O)C(CO)O2)cc1OS(=O)(=O)C(F)(F)F` (stereo not given) showed a TGI of over 100 µM.
`CC(=O)N/C(=C\c1ccccc1/C=C(\NC(C)=O)c1nc2cc(C)c(C)cc2[nH]1)c1nc2cc(C)c(C)cc2[nH]1` gave a TGI of over 100 µM.
`CCOC(=O)Cc1csc(Nc2ccccc2[N+](=O)[O-])n1` gave a TGI of over 100 µM.

These compounds were tested on SNB-78 CNS (assay: NCI anticancer screen, dose series, 48 h).
For `O=Cc1cc2c(cc1-c1cc3c(cc1C=O)OCO3)OCO2`, the TGI was over 100 µM.
With `C/C(=N\NC(N)=O)c1sc(-c2nc(C)c(/C(C)=N/NC(N)=O)s2)nc1C` the TGI was over 100 µM.
`O/N=C1\CCCCC1C(NO)c1ccccc1` (stereo not given) showed a TGI of over 100 µM.
`O=S(=O)(OI(OI(OS(=O)(=O)C(F)(F)F)c1ccccc1)c1ccccc1)C(F)(F)F` was tested, and the TGI was over 100 µM.
With `COc1cc(OC)c(OC)cc1/C=N/NC(=O)N/N=C/c1cc(OC)c(OC)cc1OC` the TGI was over 100 µM.
In the case of `FC(F)(F)c1ccc2nc(NCc3ccccc3)c(-c3ccccc3)nc2c1`, the TGI was over 100 µM.
For `Cc1cc2c(cc1C)[n+](=O)cc(C(=O)C/C(=N/NC(=S)NN)C(=O)Nc1cccc(C(F)(F)F)c1)n2[O-]`, the TGI was over 100 µM.
`COCOCCC#CCO` showed a TGI of over 100 µM.
`COc1cc(C[P+](c2ccccc2)(c2ccccc2)c2ccccc2)cc(OC)c1OC` was tested, and the TGI was over 100 µM.
`CC(C)=CCC1=C(O)c2ccccc2C(=O)C1=O` showed a TGI of over 100 µM.
In the case of `CCCN(CCC)c1c([N+](=O)[O-])cc(C(=O)N(CC)CC)cc1[N+](=O)[O-]`, the TGI was over 100 µM.
`NC(=S)N/N=C/c1ncccc1O` showed a GI50 of 64.7 µM and a TGI of over 1000 µM.
`COC(=N)c1csc(C2OC(CO)C(O)C2O)n1` (stereo not given) gave a TGI of over 100 µM.
In the case of `CN1Nc2ccccc2CC1=O`, the TGI was over 100 µM.
For `CCOc1ccc(OCC(=O)O)c2c1CCCC2=O`, the TGI was over 100 µM.
For `Nc1c(S(=O)(=O)c2ccc(Cl)cc2)c2nc3ccccc3nc2n2ccnc12`, the TGI was over 100 µM.
Work on `CCOc1ccc(NC(=O)CC2SC(=Nc3ccc(C)cc3C)NC2=O)cc1` (stereo not given) yielded a TGI of over 100 µM.
`Oc1oc(C(=C2N=c3ccccc3=N2)c2ccc(Cl)cc2)c(O)c1-c1ccc(Cl)cc1` gave a TGI of over 100 µM.
Work on `Cc1nc2c(N)ncnc2o1` yielded a TGI of over 100 µM.
For `CC[C@@H]1NC(C(=O)OC)Cc2c1[nH]c1ccccc21` (stereo not given in full), the TGI was over 100 µM.
Compound `CC(=O)N/C(=C\c1ccccc1/C=C(\NC(C)=O)c1nc2cc(C)c(C)cc2[nH]1)c1nc2cc(C)c(C)cc2[nH]1` has a TGI of over 100 µM.
For `CCOC(=O)Cc1csc(Nc2ccccc2[N+](=O)[O-])n1`, the TGI was over 100 µM.

These compounds were tested on T-47D breast (assay: NCI anticancer screen, dose series, 48 h).
`CC(C)=CCC1=C(O)c2ccccc2C(=O)C1=O` was tested, and the TGI was over 100 µM.
With `NC(=S)N/N=C/c1ncccc1O` the TGI was over 823 µM.
